Measurements from patent publication US20110224210A1, “NOVEL BIS-AMIDES AS ANTI-MALARIAL AGENTS” (priority 2008, published 2011).

Test system: P. falciparum K1 (strain resistant to chloroquine and pyrimethamine), erythrocytic stages
Assay: Plasmodium falciparum in vitro assay, [3H] hypoxanthine incorporation
Format: cell-based
Details: Plasmodium falciparum, K1, P. falciparum strain K1; [3H] hypoxanthine incorporation; read-out: IC50 (nM) on K1
Outline: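 Chloroquine/pyrimethamine-resistant K1 erythrocytic cultures (2.5% haematocrit, 0.3% parasitaemia, hypoxanthine-free RPMI with Albumax) exposed to seven doubling dilutions at 37 °C under low O2.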

Question: `CC(=O)N1CCN(c2ccc(CN(C(=O)C=Cc3ccc(C(F)(F)F)cc3)[C@@H](Cc3ccccc3)C(=O)N(C)CCOCC#N)cc2)CC1` [Example 211, (S)-N-[4-(4-Acetyl-piperazin-1-yl)-benzyl]-N-{1-[(2-cyanomethoxy-ethyl)-methyl-carbamoyl]-2-phenyl-ethyl}-3-(4-trifluoromethyl-phenyl)-acrylamide] was tested. Which IC50 did it give?
Answer: 18 nM

Question: How did the IC50 turn out when `C=CCOCCN(C)C(=O)[C@H](Cc1ccccc1)N(Cc1ccc(N2CCN(C(C)=O)CC2)cc1)C(=O)C=Cc1ccc(C(F)(F)F)cc1` [Example 212, (S)-N-[4-(4-Acetyl-piperazin-1-yl)-benzyl]-N-{1-[(2-allyloxy-ethyl)-methyl-carbamoyl]-2-phenyl-ethyl}-3-(4-trifluoromethyl-phenyl)-acrylamide] was run?
Answer: 20 nM

Question: `CC(=O)N1CCN(c2ccc(CN(C(=O)C=Cc3ccc(C(F)(F)F)cc3)[C@@H](Cc3ccccc3)C(=O)N(C)CCOCC(N)=O)cc2)CC1` [Example 213, (S)-N-[4-(4-Acetyl-piperazin-1-yl)-benzyl]-N-{1-[(2-carbamoylmethoxy-ethyl)-methyl-carbamoyl]-2-phenyl-ethyl}-3-(4-trifluoromethyl-phenyl)-acrylamide] was tested. Which IC50 did it give?
Answer: 72 nM

Question: With `CC(=O)N1CCN(c2ccc(CN(C(=O)C=Cc3ccc(C(F)(F)F)cc3)[C@@H](Cc3ccccc3)C(=O)N(C)CCOCc3ccccn3)cc2)CC1` [Example 214, (S)-N-[4-(4-Acetyl-piperazin-1-yl)-benzyl]-N-(1-{methyl-[2-(pyridin-2-ylmethoxy)-ethyl]-carbamoyl}-2-phenyl-ethyl)-3-(4-trifluoromethyl-phenyl)-acrylamide] as the molecule, how does the IC50 read?
Answer: 23 nM

Question: How did the IC50 turn out when `CC(=O)N1CCN(c2ccc(CN(C(=O)C=Cc3ccc(C(F)(F)F)nc3)[C@@H](Cc3ccccc3)C(=O)N(C)CCOCc3ccccn3)cc2)CC1` [Example 215, (S)-N-[4-(4-Acetyl-piperazin-1-yl)-benzyl]-N-(1-{methyl-[2-(pyridin-2-ylmethoxy)-ethyl]-carbamoyl}-2-phenyl-ethyl)-3-(6-trifluoromethyl-pyridin-3-yl)-acrylamide] was run?
Answer: 86 nM

Question: For `CC(=O)N1CCN(c2ccc(CN(C(=O)C=Cc3ccc(C(F)(F)F)nc3)[C@@H](Cc3ccccc3)C(=O)N(C)CCOCCOCc3ccccc3)cc2)CC1` [Example 216, (S)-N-[4-(4-Acetyl-piperazin-1-yl)-benzyl]-N-(1-{[2-(2-benzyloxy-ethoxy)-ethyl]-methyl-carbamoyl}-2-phenyl-ethyl)-3-(6-trifluoromethyl-pyridin-3-yl)-acrylamide], which IC50 is on record?
Answer: 94 nM

Question: How did the IC50 turn out when `CC(=O)N1CCN(c2ccc(CN(C(=O)C=Cc3ccc(C(F)(F)F)nc3)[C@@H](Cc3ccccc3)C(=O)N(C)CCOCC#N)cc2)CC1` [Example 217, (S)-N-[4-(4-Acetyl-piperazin-1-yl)-benzyl]-N-{1-[(2-cyanomethoxy-ethyl)-methyl-carbamoyl]-2-phenyl-ethyl}-3-(6-trifluoromethyl-pyridin-3-yl)-acrylamide] was run?
Answer: 32 nM

Question: `C=CCOCCN(C)C(=O)[C@H](Cc1ccccc1)N(Cc1ccc(N2CCN(C(C)=O)CC2)cc1)C(=O)C=Cc1ccc(C(F)(F)F)nc1` [Example 218, (S)-N-[4-(4-Acetyl-piperazin-1-yl)-benzyl]-N-{1-[(2-allyloxy-ethyl)-methyl-carbamoyl]-2-phenyl-ethyl}-3-(6-trifluoromethyl-pyridin-3-yl)-acrylamide] was tested. Which IC50 did it give?
Answer: 40 nM

Question: How did the IC50 turn out when `CN(CCN(C)C(=O)[C@H](Cc1ccccc1)N(Cc1ccc(-c2ccccn2)cc1)C(=O)C=Cc1ccc(C(F)(F)F)cc1)Cc1ccc(Br)o1` [Example 219, (S)-N-[1-({2-[(5-Bromo-furan-2-ylmethyl)-methyl-amino]-ethyl}-methyl-carbamoyl)-2-phenyl-ethyl]-N-(4-pyridin-2-yl-benzyl)-3-(4-trifluoromethyl-phenyl)-acrylamide] was run?
Answer: 52 nM

Question: How did the IC50 turn out when `CN(CCN(C)C(=O)[C@H](Cc1ccccc1)N(Cc1ccc(-c2ccccn2)cc1)C(=O)C=Cc1ccc(C(F)(F)F)cc1)Cc1ccccc1` [Example 220, (S)-N-(1-{[2-(Benzyl-methyl-amino)-ethyl]-methyl-carbamoyl}-2-phenyl-ethyl)-N-(4-pyridin-2-yl-benzyl)-3-(4-trifluoromethyl-phenyl)-acrylamide] was run?
Answer: 29 nM

Question: `CN(CCN(C)C(=O)[C@H](Cc1ccccc1)N(Cc1ccc(-c2ccccn2)cc1)C(=O)C=Cc1ccc(C(F)(F)F)cc1)Cc1ccc(Cl)nc1` [Example 221, (S)-N-[1-({2-[(6-Chloro-pyridin-3-ylmethyl)-methyl-amino]-ethyl}-methyl-carbamoyl)-2-phenyl-ethyl]-N-(4-pyridin-2-yl-benzyl)-3-(4-trifluoromethyl-phenyl)-acrylamide] was tested. Which IC50 did it give?
Answer: 20 nM

Question: How did the IC50 turn out when `CN(CCN(C)C(=O)[C@H](Cc1ccccc1)N(Cc1ccc(-c2ccccn2)cc1)C(=O)C=Cc1ccc(C(F)(F)F)cc1)Cc1ccoc1` [Example 222, (S)-N-(1-{[2-(Furan-3-ylmethyl-methyl-amino)-ethyl]-methyl-carbamoyl}-2-phenyl-ethyl)-N-(4-pyridin-2-yl-benzyl)-3-(4-trifluoromethyl-phenyl)-acrylamide] was run?
Answer: 13 nM

Question: Which IC50 does the source give for `CN(CCN(C)C(=O)[C@H](Cc1ccccc1)N(Cc1ccc(-c2ccccn2)cc1)C(=O)C=Cc1ccc(C(F)(F)F)cc1)Cc1ccco1` [Example 223, (S)-N-(1-{[2-(Furan-2-ylmethyl-methyl-amino)-ethyl]-methyl-carbamoyl}-2-phenyl-ethyl)-N-(4-pyridin-2-yl-benzyl)-3-(4-trifluoromethyl-phenyl)-acrylamide] here?
Answer: 25 nM

Question: Which IC50 does the source give for `CN(CCN(C)C(=O)[C@H](Cc1ccccc1)N(Cc1ccc(-c2ccccn2)cc1)C(=O)C=Cc1ccc(C(F)(F)F)cc1)Cc1ccccn1` [Example 224, (S)-N-(1-{Methyl-[2-(methyl-pyridin-2-ylmethyl-amino)-ethyl]-carbamoyl}-2-phenyl-ethyl)-N-(4-pyridin-2-yl-benzyl)-3-(4-trifluoromethyl-phenyl)-acrylamide] here?
Answer: 29 nM

Question: Which IC50 does the source give for `CN(CCN(C)C(=O)[C@H](Cc1ccccc1)N(Cc1ccc(-c2ccccn2)cc1)C(=O)C=Cc1ccc(C(F)(F)F)cc1)Cc1cccs1` [Example 225, (S)-N-(1-{Methyl-[2-(methyl-thiophen-2-ylmethyl-amino)-ethyl]-carbamoyl}-2-phenyl-ethyl)-N-(4-pyridin-2-yl-benzyl)-3-(4-trifluoromethyl-phenyl)-acrylamide] here?
Answer: 20 nM

Question: `CN(CCN(C)C(=O)[C@H](Cc1ccccc1)N(Cc1ccc(-c2ccccn2)cc1)C(=O)C=Cc1ccc(C(F)(F)F)cc1)Cc1ccc(Cl)s1` [Example 226, (S)-N-[1-({2-[(5-Chloro-thiophen-2-ylmethyl)-methyl-amino]-ethyl}-methyl-carbamoyl)-2-phenyl-ethyl]-N-(4-pyridin-2-yl-benzyl)-3-(4-trifluoromethyl-phenyl)-acrylamide] was tested. Which IC50 did it give?
Answer: 75 nM

Question: How did the IC50 turn out when `CN(CCN(C)C(=O)[C@H](Cc1ccccc1)N(Cc1ccc(-c2ccccn2)cc1)C(=O)C=Cc1ccc(C(F)(F)F)cc1)Cc1ccc(Br)nc1` [Example 227, (S)-N-[1-({2-[(6-Bromo-pyridin-3-ylmethyl)-methyl-amino]-ethyl}-methyl-carbamoyl)-2-phenyl-ethyl]-N-(4-pyridin-2-yl-benzyl)-3-(4-trifluoromethyl-phenyl)-acrylamide] was run?
Answer: 18 nM

Question: How did the IC50 turn out when `CN(CCN(C)C(=O)[C@H](Cc1ccccc1)N(Cc1ccc(-c2ccccn2)cc1)C(=O)C=Cc1ccc(C(F)(F)F)cc1)Cc1ccc(CO)o1` [Example 228, (S)-N-[1-({2-[(5-Hydroxymethyl-furan-2-ylmethyl)-methyl-amino]-ethyl}-methyl-carbamoyl)-2-phenyl-ethyl]-N-(4-pyridin-2-yl-benzyl)-3-(4-trifluoromethyl-phenyl)-acrylamide] was run?
Answer: 9 nM

Question: `COc1ccc(CN(C)CCN(C)C(=O)[C@H](Cc2ccccc2)N(Cc2ccc(-c3ccccn3)cc2)C(=O)C=Cc2ccc(C(F)(F)F)cc2)cn1` [Example 229, (S)-N-[1-({2-[(6-Methoxy-pyridin-3-ylmethyl)-methyl-amino]-ethyl}-methyl-carbamoyl)-2-phenyl-ethyl]-N-(4-pyridin-2-yl-benzyl)-3-(4-trifluoromethyl-phenyl)-acrylamide] was tested. Which IC50 did it give?
Answer: 9 nM

Question: How did the IC50 turn out when `CN(CCN(C)C(=O)[C@H](Cc1ccccc1)N(Cc1ccc(-c2ccccn2)cc1)C(=O)C=Cc1ccc(C(F)(F)F)cc1)Cc1ccc(C(F)(F)F)nc1` [Example 230, (S)-N-[1-(Methyl-{2-[methyl-(6-trifluoromethyl-pyridin-3-ylmethyl)-amino]-ethyl}-carbamoyl)-2-phenyl-ethyl]-N-(4-pyridin-2-yl-benzyl)-3-(4-trifluoromethyl-phenyl)-acrylamide] was run?
Answer: 10 nM

Question: `CN(CCN(C)C(=O)[C@H](Cc1ccccc1)N(Cc1ccc(-c2ccccn2)cc1)C(=O)C=Cc1ccc(C(F)(F)F)cc1)Cc1cccnc1` [Example 231, (S)-N-(1-{Methyl-[2-(methyl-pyridin-3-ylmethyl-amino)-ethyl]-carbamoyl}-2-phenyl-ethyl)-N-(4-pyridin-2-yl-benzyl)-3-(4-trifluoromethyl-phenyl)-acrylamide] was tested. Which IC50 did it give?
Answer: 30 nM

Question: Which IC50 does the source give for `CN(CCN(C)C(=O)[C@H](Cc1ccccc1)N(Cc1ccc(-c2ccccn2)cc1)C(=O)C=Cc1ccc(C(F)(F)F)cc1)Cc1ccsc1` [Example 232, (S)-N-(1-{Methyl-[2-(methyl-thiophen-3-ylmethyl-amino)-ethyl]-carbamoyl}-2-phenyl-ethyl)-N-(4-pyridin-2-yl-benzyl)-3-(4-trifluoromethyl-phenyl)-acrylamide] here?
Answer: 33 nM

Question: For `Cc1ccccc1CN(C)CCN(C)C(=O)[C@H](Cc1ccccc1)N(Cc1ccc(-c2ccccn2)cc1)C(=O)C=Cc1ccc(C(F)(F)F)cc1` [Example 233, (S)-N-[1-(Methyl-{2-[methyl-(2-methyl-benzyl)-amino]-ethyl}-carbamoyl)-2-phenyl-ethyl]-N-(4-pyridin-2-yl-benzyl)-3-(4-trifluoromethyl-phenyl)-acrylamide], which IC50 is on record?
Answer: 53 nM

Question: How did the IC50 turn out when `Cc1ccc(CN(C)CCN(C)C(=O)[C@H](Cc2ccccc2)N(Cc2ccc(-c3ccccn3)cc2)C(=O)C=Cc2ccc(C(F)(F)F)cc2)c(C)c1` [Example 234, (S)-N-[1-({2-[(2,4-Dimethyl-benzyl)-methyl-amino]-ethyl}-methyl-carbamoyl)-2-phenyl-ethyl]-N-(4-pyridin-2-yl-benzyl)-3-(4-trifluoromethyl-phenyl)-acrylamide] was run?
Answer: 64 nM
